Assay results taken from publication PMC11241262, “Unravelling the Antifibrinolytic Mechanism of Action of the 1,2,3-Triazole Derivatives” (International Journal of Molecular Sciences, 2024).

Columns and labels:
whole blood clots = assay: Whole blood dosage (effective antifibrinolytic dosage, tPA-triggered clot lysis); set-up: species or system human; settings: 10 µg/mL tPA, 37 °C
Method: Blood was obtained by venipuncture from healthy donors after they signed an informed consent form. Blood was transferred into vacuum non-anticoagulant Vacutainer® tubes (BD, Franklin Lakes, NJ, USA). Blood samples were immediately used for the assay after extraction.
Glass tubes were prepared with 20 µL of a mixture of tPA, in a final concentration of 10 µg/mL, and the evaluated compounds, in a final concentration of 10, 20, 40, or 60 µM in Tris HCl buffer. A control clot was obtained with 20 µL of tPA with no compound. Then, 800 µL of blood was transferred to each tube and tubes were monitored for clot formation and lysis. The assay was performed with casual shaking. […] The ex vivo effective dosage for each compound was determined by their ability to inhibit complete clot degradation. Photographs were taken after 24 h of incubation.

plasmin = biological target: T1, plasmin (Homo sapiens, UniProt P00747); assay: Plasmin activity assay (Plasmin Inhibitor Screening Assay Kit); format: biochemical
T1 construct: purchased abcam
T1 sequence (P00747 97-580 limits assumed): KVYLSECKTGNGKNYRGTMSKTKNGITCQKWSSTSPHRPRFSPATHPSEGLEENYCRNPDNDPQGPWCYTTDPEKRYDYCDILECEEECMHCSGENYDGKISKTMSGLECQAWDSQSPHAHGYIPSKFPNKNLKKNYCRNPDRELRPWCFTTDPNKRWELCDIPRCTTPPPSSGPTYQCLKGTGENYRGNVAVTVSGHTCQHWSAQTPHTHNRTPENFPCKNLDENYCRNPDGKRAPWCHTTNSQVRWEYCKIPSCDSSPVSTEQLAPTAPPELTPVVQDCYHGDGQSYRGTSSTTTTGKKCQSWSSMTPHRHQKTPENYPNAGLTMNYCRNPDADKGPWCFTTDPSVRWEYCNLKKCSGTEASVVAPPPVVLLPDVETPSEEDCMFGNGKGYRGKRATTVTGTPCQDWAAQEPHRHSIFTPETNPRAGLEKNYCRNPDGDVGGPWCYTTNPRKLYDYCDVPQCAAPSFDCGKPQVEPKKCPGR
T1 sequence (P00747 581-810 limits assumed): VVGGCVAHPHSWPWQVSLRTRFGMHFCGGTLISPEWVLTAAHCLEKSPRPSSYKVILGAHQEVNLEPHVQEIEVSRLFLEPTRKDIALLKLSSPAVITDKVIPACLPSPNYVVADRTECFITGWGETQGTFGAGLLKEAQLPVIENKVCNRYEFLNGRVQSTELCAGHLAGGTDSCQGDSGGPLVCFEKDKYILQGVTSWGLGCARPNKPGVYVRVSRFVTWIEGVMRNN
Method: The potential activity of the studied compounds on the catalytic domain of plasmin was evaluated using the Plasmin Inhibitor Screening Assay Kit (abcam), following the manufacturer’s instructions. Briefly, the assay measures the inhibition of plasmin’s activity by the tested compounds through the cleavage of a fluorogenic peptide substrate. The assay was performed in flat-bottom 96-well plates. Plasmin was pre-incubated with different concentrations of the tested compounds for 10 min at RT prior to the addition of the peptide substrate. Plasmin’s activity was then measured by monitoring the increase in fluorescence intensity over time using a microplate reader (Infinite M Plex, Tecan, Männedorf, Switzerland) at an Ex/Em of 360/450 nm, every minute at 37 °C for 10 min. The slope of each sample was determined using the initial and final fluorescence values and their respective time points. (1) Fluorescence slope=RFU2−RFU1/t2−t1
The Relative Plasmin Inhibition was calculated according to the manufacturer’s instructions using a control slope with no compound (enzyme control):(2) Relative Plasmin Inhibition%=SlopeControl−SlopeCompound/SlopeControl×100

[1] = Pharmacokinetic study in Wistar rats; format: in vivo; settings: for Mortality: PK2 2.5 mg/kg iv, 9 rats; for AUC / Cmax / Tmax / Vd / clearance / half-life: iv
Method: A pharmacokinetic study was performed for compound 5 in Wistar rats and Beagle dogs. For rats, a total of 35 male and 35 female rats were used for the study. At initiation of the dosing, rats were 9 to 10 weeks old and the body weight variation among rats was within ±20% of the mean body weight for each sex. […] Food and filtered water were provided ad libitum. During randomization, 30 male and 30 female rats were selected for the study and randomly allocated to the 4 different groups. The remaining 5 male and 5 female rats were returned to the animal facility. Rats were observed twice daily for morbidity, mortality, and clinical signs during the whole study period. Rats were euthanized after last blood collection time point by carbon dioxide asphyxiation. Sterile water served as a vehicle to dissolve compound 5 and the resulting formulations were administered right after preparation. Dose formulations were administered to rats via an intravenous bolus injection through the tail vein, using a sterile needle attached to a graduated syringe. A fixed volume of 5 mL/kg body weight was administered. Individual doses were adjusted based on the most recent recorded body weight of each rat. Four dose levels were selected: vehicle control (PK1), 2.5 mg/kg (PK2), 5 mg/kg (PK3), and 10 mg/kg (PK4).
Pharmacokinetic assessment of compound 5 was conducted on the day of dosing at multiple time points: 0 h (pre-dose), 5 min, 15 min, 0.5 h, 1 h, 2 h, 4 h, 6 h, 10 h, and 24 h post-dosing for PK2, PK3, and PK4 rats. At each time point, samples were only obtained from a subset of 3 rats. For the PK1 group, samples were collected at 0 h and at 24 h post-dosing. Blood samples (400 µL) were collected into heparin sodium tubes from the retro-orbital plexus under very light isoflurane anesthesia. Samples were inverted 4 to 5 times and placed on ice and then centrifuged at 3500 rpm for 15 min at 8 °C for plasma extraction. Plasma was transferred to Eppendorf tubes and stored at −70 ± 10 °C until assayed. The concentration of compound 5 was analyzed in plasma using High-Performance Liquid Chromatography. […] The mobile phase consisted of acetonitrile (A) and 2 mM ammonium Formate in Mili-Q water (B) with an isocratic elution mode. Pharmacokinetic analysis of the concentration of compound 5 in plasma was performed using the non-compartmental model of the WinNonlin® software version 8.1 at JRF. The group mean values of plasma concentration were analyzed to obtain different pharmacokinetics parameters, including Cmax (maximum peak concentration), Tmax (time of maximum peak concentration), AUC (area under the concentration–time curve, Cl (clearance), Vd (volume of distribution), Kel (elimination rate constant), and T1/2 (terminal half-life).

[2] = female, Wistar, rat, in vivo, 2.5 mg/kg
[3] = female, Wistar, rat, in vivo, 5 mg/kg
[4] = female, Wistar, rat, in vivo, 10 mg/kg
[5] = male, Wistar, rat, in vivo, 2.5 mg/kg
[6] = male, Wistar, rat, in vivo, 5 mg/kg
[7] = male, Wistar, rat, in vivo, 10 mg/kg

For `O=c1[nH]nc(-c2cn(C3CCNCC3)nn2)o1` [compound 5], the “effective dosage (concentration preventing complete clot degradation after 24 h)” value (whole blood clots) was 10 µM, the inhibition at 5000 µM (plasmin; 5 mM, read-out: percentage of plasmin's inhibition) was 6.29% and the inhibition at 10000 µM (plasmin; 10 mM, read-out: percentage of plasmin's inhibition) was 23.9%. It also gave an inhibition at 15000 µM (plasmin; 15 mM, read-out: percentage of plasmin's inhibition) of 31.3%, an inhibition at 20000 µM (plasmin; 20 mM, read-out: percentage of plasmin's inhibition) of 65.3% and an IC50 (plasmin; inhibition of plasmin's cleavage of a synthetic substrate by 50%) of 17.9 ± 1.24 mM. The “increase of IC50 of plasmin's catalytic domain compared to IC50 in plasma clot lysis assay” value (plasmin; plasma clot lysis IC50 from Bosch-Sanz et al. [43]) was 1000 fold, the Mortality ([1]; female) was 0 number of rats and the Mortality ([1]; male) was 0 number of rats. The elimination halftime ([1]; both, Wistar (rat), Beagle (dog), rat, in vivo) was 2 to 3 h, the AUC [1, 2] was 3630 ng·h/mL and the Cmax [1, 2] was 8660 ng/mL. The Tmax [1, 2] was 4.8 min, the Vd [1, 2] was 1.91 L/kg and the clearance [1, 2] was 11.5 mL/min/kg. It also gave a half-life [1, 2] of 115 min, an AUC [1, 3] of 7040 ng·h/mL and a Tmax [1, 3] of 4.8 min. The Vd [1, 3] was 2.03 L/kg, the clearance [1, 3] was 11.8 mL/min/kg and the half-life [1, 3] was 119 min. For the same molecule, the AUC [1, 4] was 13600 ng·h/mL, the Tmax [1, 4] was 4.8 min and the Vd [1, 4] was 2.37 L/kg. For the same molecule, the clearance [1, 4] was 12.2 mL/min/kg, the half-life [1, 4] was 134 min and the AUC [1, 5] was 3430 ng·h/mL. The Cmax [1, 5] was 8280 ng/mL, the Tmax [1, 5] was 4.8 min and the Vd [1, 5] was 2.52 L/kg. The clearance [1, 5] was 12.2 mL/min/kg, the half-life [1, 5] was 145 min and the AUC [1, 6] was 6530 ng·h/mL. It also gave a Cmax [1, 6] of 15100 ng/mL, a Tmax [1, 6] of 4.8 min and a Vd [1, 6] of 6.01 L/kg. The clearance [1, 6] was 12.7 mL/min/kg, the half-life [1, 6] was 327 min and the AUC [1, 7] was 12200 ng·h/mL. The Cmax [1, 7] was 26300 ng/mL, the Tmax [1, 7] was 4.8 min and the Vd [1, 7] was 6.65 L/kg. For the same molecule, the clearance [1, 7] was 13.7 mL/min/kg, the half-life [1, 7] was 337 min and the Cmax ([1]; rat, in vivo, 5 mg/kg) was 16,634. For the same molecule, the Cmax ([1]; rat, in vivo, 10 mg/kg) was 30,839.
